From US11504425B2, “Amphiphilic oligodeoxynucleotide conjugates as adjuvant enhancers” (WAYNE STATE UNIVERSITY, priority 2019, dated 2022)

Tests used:
Murine splenocytes = test: Cytokine secretion by murine splenocytes (ELISA); assay type: cell-based, mice; conditions: 2 μM IMQ + 1 μM ODN, 24 h
Method: Spleens were freshly collected from mice and were cut into small pieces. A plunger end of a syringe was used to further disassemble spleen tissues into single cells. The cell suspension was subsequently filtered and washed. Lysing buffer was utilized to remove excessive red blood cells. After two washes, 95% viability of splenocytes was confirmed by trypan blue. Splenocytes were resuspended in RPMI-1640 supplemented with 10% FBS and 1% P/S. Splenocytes were seeded at 1×10^6 cells/ml in 200 μL in a 96-well plate.
Supernatants collected from splenocytes suspension or human PBMC suspension after incubation were separately analyzed for IL-6, IL-12p40, TNF-α, and IFN-α by ELISA following manufacturer's instructions.

human TLR7 (hTLR7) = target: T1, human TLR7 (hTLR7) (Homo sapiens, UniProt Q9NYK1); test: HEK hTLR7 reporter cells NF-κB/SEAP; assay type: cell-based; conditions: IMQ at indicated concentrations + 1 μM ODN, 24 h
T1 construct: host or cells: HEK-Blue-hTLR7 (HEK293)
T1 sequence (Q9NYK1 27-1049): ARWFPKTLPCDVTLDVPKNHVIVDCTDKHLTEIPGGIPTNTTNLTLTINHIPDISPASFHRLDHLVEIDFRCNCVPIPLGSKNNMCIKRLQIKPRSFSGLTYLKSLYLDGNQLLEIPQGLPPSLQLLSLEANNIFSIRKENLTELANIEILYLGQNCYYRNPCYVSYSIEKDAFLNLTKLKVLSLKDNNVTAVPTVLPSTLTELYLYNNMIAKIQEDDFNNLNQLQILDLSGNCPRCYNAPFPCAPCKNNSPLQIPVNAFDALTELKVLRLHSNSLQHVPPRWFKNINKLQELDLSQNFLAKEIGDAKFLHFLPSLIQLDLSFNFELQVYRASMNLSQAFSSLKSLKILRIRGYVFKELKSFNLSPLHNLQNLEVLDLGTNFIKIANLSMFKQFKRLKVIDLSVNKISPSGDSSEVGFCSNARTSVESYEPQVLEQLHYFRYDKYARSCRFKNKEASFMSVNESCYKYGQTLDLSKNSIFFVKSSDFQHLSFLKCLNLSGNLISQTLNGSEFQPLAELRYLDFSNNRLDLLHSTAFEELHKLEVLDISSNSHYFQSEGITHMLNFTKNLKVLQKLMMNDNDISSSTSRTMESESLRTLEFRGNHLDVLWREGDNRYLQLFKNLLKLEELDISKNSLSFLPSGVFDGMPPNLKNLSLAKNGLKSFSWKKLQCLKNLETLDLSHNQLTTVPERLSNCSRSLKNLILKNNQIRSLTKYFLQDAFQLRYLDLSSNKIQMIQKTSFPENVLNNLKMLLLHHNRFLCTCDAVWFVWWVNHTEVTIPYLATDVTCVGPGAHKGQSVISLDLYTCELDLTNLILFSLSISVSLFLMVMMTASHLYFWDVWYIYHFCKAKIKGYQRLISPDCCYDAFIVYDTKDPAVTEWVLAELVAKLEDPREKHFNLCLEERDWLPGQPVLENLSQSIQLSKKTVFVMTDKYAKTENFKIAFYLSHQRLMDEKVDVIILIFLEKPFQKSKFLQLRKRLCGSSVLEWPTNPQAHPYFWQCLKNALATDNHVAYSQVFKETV
Method: (§1) HEK-Blue™-mTLR7, mTLR8, hTLR7, hTLR8, and RAW-Blue™ cells were purchased from InvivoGen and were used to evaluate bioactivities of lipo ODNs and TLR 7/8 ligands in vitro. All these cell lines were cultured with DMEM supplemented with 10% FBS, 1% P/S and 100 μg/mL Normocin at 37° C. with 5% CO2. […] After incubating for 24 h, SEAP levels were quantified by developing supernatants with QuantiBlue™ substrate for 1 h and reading absorption at 620 nm, following manufacturer's instructions.
HEK293 cells transfected with human TLR7 or 8 were used. The cells were stimulated with IMQ in the presence of several inhibitory oligonucleotides reported in the literature. […] In contrast, all the unmodified ODNs maintained their inhibitory function, reducing the NF-κB secretion to basal levels (FIG. 8A). We then plotted the IMQ dose response curve in human TLR-7 transfected HEK293 cells.

mouse TLR8 (mTLR8) = target: T2, mouse TLR8 (mTLR8) (Mus musculus, UniProt P58682); test: HEK mTLR8 reporter cells NF-κB/SEAP; assay type: cell-based; conditions: ligands at indicated concentrations + 1 μM ODN, 24 h
T2 construct: host or cells: HEK-Blue-mTLR8 (HEK293)
T2 sequence (P58682 24-1032): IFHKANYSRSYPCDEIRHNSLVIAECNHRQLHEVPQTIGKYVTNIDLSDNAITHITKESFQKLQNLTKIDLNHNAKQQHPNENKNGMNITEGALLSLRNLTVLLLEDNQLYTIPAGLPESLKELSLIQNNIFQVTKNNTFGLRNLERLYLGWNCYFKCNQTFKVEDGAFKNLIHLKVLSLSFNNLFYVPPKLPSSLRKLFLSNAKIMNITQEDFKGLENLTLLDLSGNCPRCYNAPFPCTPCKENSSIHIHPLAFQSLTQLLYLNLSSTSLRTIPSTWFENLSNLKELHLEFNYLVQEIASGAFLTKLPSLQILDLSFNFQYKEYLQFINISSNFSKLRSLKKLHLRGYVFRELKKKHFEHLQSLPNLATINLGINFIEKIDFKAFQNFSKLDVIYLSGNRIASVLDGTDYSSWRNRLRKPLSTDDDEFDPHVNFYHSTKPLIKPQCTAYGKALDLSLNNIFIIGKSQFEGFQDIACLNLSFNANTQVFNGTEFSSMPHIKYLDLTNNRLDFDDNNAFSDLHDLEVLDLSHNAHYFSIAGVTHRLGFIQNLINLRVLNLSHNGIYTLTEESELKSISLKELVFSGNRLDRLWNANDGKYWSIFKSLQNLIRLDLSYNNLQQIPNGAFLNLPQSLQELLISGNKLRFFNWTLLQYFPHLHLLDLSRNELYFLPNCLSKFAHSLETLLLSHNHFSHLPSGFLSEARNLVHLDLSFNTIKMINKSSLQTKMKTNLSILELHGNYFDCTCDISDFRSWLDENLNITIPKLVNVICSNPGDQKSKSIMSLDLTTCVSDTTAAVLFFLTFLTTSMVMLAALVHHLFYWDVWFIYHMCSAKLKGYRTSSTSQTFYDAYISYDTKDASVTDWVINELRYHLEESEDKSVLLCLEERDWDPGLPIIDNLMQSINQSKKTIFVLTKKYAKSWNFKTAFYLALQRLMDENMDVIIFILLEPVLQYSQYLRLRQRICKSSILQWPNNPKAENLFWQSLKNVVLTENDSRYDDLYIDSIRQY
Method: as §1
Raw Blue cells which respond to both murine TLR-7 and TLR-8 are also included to assess the overall modulatory effect. half-maximal effective concentration (EC50) and potency of several classic TLR7/8 ligands were evaluated in murine TLR7 and TLR8 reporter cells.

## 5′-TTTTTTTTTTTTTTTTTTTT-3′ [T20]
Murine splenocytes
  IFN-α production induced by IMQ: decreased the production of IFN-α
  IL-6 production: significantly lower level of pro-inflammatory cytokines compared with IMQ alone
  IL-12p40 production: significantly lower level of pro-inflammatory cytokines compared with IMQ alone
  TNF-α production: significantly lower level of pro-inflammatory cytokines compared with IMQ alone
Human TLR7 (hTLR7)
  IMQ dose response in hTLR7 cells in the presence of the ODN: completely abrogated the immune activation by IMQ
Mouse TLR8 (mTLR8)
  mTLR8 stimulation by IMQ, CL075, R848 in the presence of the ODN: increased the potency of TLR-8 stimulation
